Results published in patent US9926281B2 (priority 2014, dated 2018).

What was measured:
[1] = target: human TACE (Homo sapiens (Human), UniProt P78536); conditions: read-out: TACE potency IC50
[2] = target: human ADAMTS-5 (Homo sapiens (Human), UniProt Q9UNA0); conditions: read-out: hADAMTS-5 potency IC50
human ADAMTS-5, sequence (Q9UNA0 262-930): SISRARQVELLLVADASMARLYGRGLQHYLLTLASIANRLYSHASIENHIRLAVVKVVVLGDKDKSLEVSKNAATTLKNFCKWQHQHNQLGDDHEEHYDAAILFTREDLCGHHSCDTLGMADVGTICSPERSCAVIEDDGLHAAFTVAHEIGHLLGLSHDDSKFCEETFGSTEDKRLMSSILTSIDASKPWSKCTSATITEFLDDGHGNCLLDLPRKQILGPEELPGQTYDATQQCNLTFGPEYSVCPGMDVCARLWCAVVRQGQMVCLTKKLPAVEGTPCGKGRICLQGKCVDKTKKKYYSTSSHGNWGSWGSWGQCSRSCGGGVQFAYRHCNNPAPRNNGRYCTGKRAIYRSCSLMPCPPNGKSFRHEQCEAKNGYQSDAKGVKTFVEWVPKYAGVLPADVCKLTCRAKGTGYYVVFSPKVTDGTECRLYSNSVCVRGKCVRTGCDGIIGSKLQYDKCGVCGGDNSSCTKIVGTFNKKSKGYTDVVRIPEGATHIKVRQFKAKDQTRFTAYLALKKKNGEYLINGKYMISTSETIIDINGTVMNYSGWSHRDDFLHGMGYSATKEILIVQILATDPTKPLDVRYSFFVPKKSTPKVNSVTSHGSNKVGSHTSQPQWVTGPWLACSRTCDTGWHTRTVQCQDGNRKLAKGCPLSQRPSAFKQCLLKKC
Method: Finally, the fluorescence is read on the Envision (Perkin Elmer) after an incubation of 90 min at 37° C.

human TACE, sequence (P78536 whole entry, looked up, change not shown): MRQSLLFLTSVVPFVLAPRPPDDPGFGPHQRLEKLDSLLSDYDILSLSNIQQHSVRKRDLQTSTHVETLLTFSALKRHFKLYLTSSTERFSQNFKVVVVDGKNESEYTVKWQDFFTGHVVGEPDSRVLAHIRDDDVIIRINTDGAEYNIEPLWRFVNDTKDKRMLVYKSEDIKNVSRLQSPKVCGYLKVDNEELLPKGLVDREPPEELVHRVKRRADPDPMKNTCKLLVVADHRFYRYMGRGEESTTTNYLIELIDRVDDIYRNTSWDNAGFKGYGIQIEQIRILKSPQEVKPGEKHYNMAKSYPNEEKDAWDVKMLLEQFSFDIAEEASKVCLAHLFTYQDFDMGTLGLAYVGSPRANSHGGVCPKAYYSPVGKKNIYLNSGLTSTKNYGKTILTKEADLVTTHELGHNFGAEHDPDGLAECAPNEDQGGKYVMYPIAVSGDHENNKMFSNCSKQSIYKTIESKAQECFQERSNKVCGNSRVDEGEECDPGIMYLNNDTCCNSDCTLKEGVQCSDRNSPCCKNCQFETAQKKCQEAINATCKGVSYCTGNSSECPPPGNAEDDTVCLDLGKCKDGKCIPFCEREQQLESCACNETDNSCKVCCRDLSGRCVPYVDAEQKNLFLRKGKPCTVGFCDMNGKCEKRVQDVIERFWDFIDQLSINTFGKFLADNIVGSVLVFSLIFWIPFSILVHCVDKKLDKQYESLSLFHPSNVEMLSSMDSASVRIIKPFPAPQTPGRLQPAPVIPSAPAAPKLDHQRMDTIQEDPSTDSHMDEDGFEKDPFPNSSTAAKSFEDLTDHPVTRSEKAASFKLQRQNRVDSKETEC

Row | SMILES | IC50 [1] [nM] | IC50 [2] [nM]
1 | C[C@H]1CN(C(=O)CCC2(c3cccnc3)NC(=O)NC2=O)CCN1c1cc(Cl)cc(Cl)c1 (stereo partly drawn) [compound 318, 5-[3-[(3S)-4-(3,5-dichlorophenyl)-3-methyl-piperazin-1-yl]-3-oxo-propyl]-5-(3-pyridyl)imidazolidine-2,4-dione] | 2190 | 59
2 | C[C@H]1CN(C(=O)CCC2(C3CC3)NC(=O)NC2=O)CCN1c1cccc(-c2cncc(Cl)c2)c1 (stereo partly drawn) [compound 322, 5-[3-[(3S)-4-[3-(5-chloro-3-pyridyl)phenyl]-3-methyl-piperazin-1-yl]-3-oxo-propyl]-5-cyclopropyl-imidazolidine-2,4-dione] | > 4000 | 237
3 | Cc1ncccc1-c1cccc(N2CCN(C(=O)CCC3(C4CC4)NC(=O)NC3=O)C[C@@H]2C)c1 (stereo partly drawn) [compound 323, 5-cyclopropyl-5-[3-[(3S)-3-methyl-4-[3-(2-methyl-3-pyridyl)phenyl]piperazin-1-yl]-3-oxo-propyl]imidazolidine-2,4-dione] | > 4000 | 1240
4 | Cc1ccc(-c2cccc(N3CCN(C(=O)CCC4(C5CC5)NC(=O)NC4=O)C[C@@H]3C)c2)cn1 (stereo partly drawn) [compound 324, 5-cyclopropyl-5-[3-[(3S)-3-methyl-4-[3-(6-methyl-3-pyridyl)phenyl]piperazin-1-yl]-3-oxo-propyl]imidazolidine-2,4-dione] | > 4000 | 407
5 | C[C@H]1CN(C(=O)CCC2(C3CC3)NC(=O)NC2=O)CCN1c1cc(Cl)ccn1 (stereo partly drawn) [compound 325, 5-[3-[(3S)-4-(4-chloro-2-pyridyl)-3-methyl-piperazin-1-yl]-3-oxo-propyl]-5-cyclopropyl-imidazolidine-2,4-dione] | > 20000 | 796
6 | C[C@H]1CN(C(=O)CCC2(C3CC3)NC(=O)NC2=O)CCN1c1cccc2c1ccn2C (stereo partly drawn) [compound 328, 5-cyclopropyl-5-[3-[(3S)-3-methyl-4-(1-methylindol-4-yl)piperazin-1-yl]-3-oxo-propyl]imidazolidine-2,4-dione] | > 20000 | > 4000
7 | Cc1cc(-c2cccc(N3CCN(C(=O)CCC4(C5CC5)NC(=O)NC4=O)C[C@@H]3C)c2)ccn1 (stereo partly drawn) [compound 329, 5-cyclopropyl-5-[3-[(3S)-3-methyl-4-[3-(2-methyl-4-pyridyl)phenyl]piperazin-1-yl]-3-oxo-propyl]imidazolidine-2,4-dione] | > 20000 | 134
8 | C[C@H]1CN(C(=O)CCC2(C3CC3)NC(=O)NC2=O)CCN1c1cncc(C#N)c1 (stereo partly drawn) [compound 330, 5-[(2S)-4-[3-(4-cyclopropyl-2,5-dioxo-imidazolidin-4-yl)propanoyl]-2-methyl-piperazin-1-yl]pyridine-3-carbonitrile] | > 20000 | > 4000
9 | C[C@H]1CN(C(=O)CCC2(C3CC3)NC(=O)NC2=O)CCN1c1cc(F)cc(C#N)c1 (stereo partly drawn) [compound 334, 3-[(2S)-4-[3-(4-cyclopropyl-2,5-dioxo-imidazolidin-4-yl)propanoyl]-2-methyl-piperazin-1-yl]-5-fluoro-benzonitrile] | > 20000 | 430
10 | COc1cccc(C2(CCC(=O)N3CCN(c4cc(F)cc(F)c4)[C@@H](C)C3)NC(=O)NC2=O)n1 (stereo partly drawn) [compound 336, 5-[3-[(3S)-4-(3,5-difluorophenyl)-3-methyl-piperazin-1-yl]-3-oxo-propyl]-5-(6-methoxy-2-pyridyl)imidazolidine-2,4-dione] | > 4000 | 74
11 | C[C@H]1CN(C(=O)CCC2(C3CC3)NC(=O)NC2=O)CCN1c1cnc2ccn(C)c2c1 (stereo partly drawn) [compound 337, 5-cyclopropyl-5-[3-[(3S)-3-methyl-4-(1-methylpyrrolo[3,2-b]pyridin-6-yl)piperazin-1-yl]-3-oxo-propyl]imidazolidine-2,4-dione] | > 20000 | 764
12 | C[C@H]1CN(C(=O)CCC2(C3CC3)NC(=O)NC2=O)CCN1c1cc(F)cc(-c2cn[nH]c2)c1 (stereo partly drawn) [compound 338, 5-cyclopropyl-5-[3-[(3S)-4-[3-fluoro-5-(1H-pyrazol-4-yl)phenyl]-3-methyl-piperazin-1-yl]-3-oxo-propyl]imidazolidine-2,4-dione] | > 4000 | 60
13 | C[C@H]1CN(C(=O)CCC2(C3CC3)NC(=O)NC2=O)CCN1c1ccc(F)c(-c2cn[nH]c2)c1 (stereo partly drawn) [compound 340, 5-cyclopropyl-5-[3-[(3S)-4-[4-fluoro-3-(1H-pyrazol-4-yl)phenyl]-3-methyl-piperazin-1-yl]-3-oxo-propyl]imidazolidine-2,4-dione] | > 4000 | 155
14 | C[C@H]1CN(C(=O)CCC2(C3CC3)NC(=O)NC2=O)CCN1c1ccc2cnn(C)c2c1 (stereo partly drawn) [compound 341, 5-cyclopropyl-5-[3-[(3S)-3-methyl-4-(1-methylindazol-6-yl)piperazin-1-yl]-3-oxo-propyl]imidazolidine-2,4-dione] | 885 | 264
15 | CC(CC1(C2CC2)NC(=O)NC1=O)C(=O)N1CCN(c2ccc(F)cc2)[C@@H](C)C1 (stereo partly drawn) [compound 343, 5-cyclopropyl-5-[3-[(3S)-4-(4-fluorophenyl)-3-methyl-piperazin-1-yl]-2-methyl-3-oxo-propyl]imidazolidine-2,4-dione] | > 20000 | 22
16 | Cc1nc(N2CCN(C(=O)CCC3(C4CC4)NC(=O)NC3=O)C[C@@H]2C)no1 (stereo partly drawn) [compound 344, 5-cyclopropyl-5-[3-[(3S)-3-methyl-4-(5-methyl-1,2,4-oxadiazol-3-yl)piperazin-1-yl]-3-oxo-propyl]imidazolidine-2,4-dione] | > 20000 | > 20000
17 | C[C@H]1CN(C(=O)CCC2(c3ccccn3)NC(=O)NC2=O)CCN1c1cccc(F)c1 (stereo partly drawn) [compound 345, 5-[3-[(3S)-4-(3-fluorophenyl)-3-methyl-piperazin-1-yl]-3-oxo-propyl]-5-(2-pyridyl)imidazolidine-2,4-dione] | > 4000 | 50
18 | C[C@H]1CN(C(=O)CCC2(c3ccccn3)NC(=O)NC2=O)CCN1c1ccc(Cl)c(Cl)c1 (stereo partly drawn) [compound 347, 5-[3-[(3S)-4-(3,4-dichlorophenyl)-3-methyl-piperazin-1-yl]-3-oxo-propyl]-5-(2-pyridyl)imidazolidine-2,4-dione] | 2380 | 21
19 | C[C@H]1CN(C(=O)CCC2(c3ccccn3)NC(=O)NC2=O)CCN1c1cc(F)cc(F)c1 (stereo partly drawn) [compound 348, 5-[3-[(3S)-4-(3,5-difluorophenyl)-3-methyl-piperazin-1-yl]-3-oxo-propyl]-5-(2-pyridyl)imidazolidine-2,4-dione] | > 4000 | 34
20 | C[C@H]1CN(C(=O)CCC2(c3cnccn3)NC(=O)NC2=O)CCN1c1ccc(F)c(Cl)c1 (stereo partly drawn) [compound 349, 5-[3-[(3S)-4-(3-chloro-4-fluoro-phenyl)-3-methyl-piperazin-1-yl]-3-oxo-propyl]-5-pyrazin-2-yl-imidazolidine-2,4-dione] | > 4000 | 62
21 | Cc1noc(N2CCN(C(=O)CCC3(C4CC4)NC(=O)NC3=O)C[C@@H]2C)n1 (stereo partly drawn) [compound 352, 5-cyclopropyl-5-[3-[(3S)-3-methyl-4-(3-methyl-1,2,4-oxadiazol-5-yl)piperazin-1-yl]-3-oxo-propyl]imidazolidine-2,4-dione] | > 20000 | > 20000
22 | Cc1nc(C2(CCC(=O)N3CCN(c4cc(F)cc(F)c4)[C@@H](C)C3)NC(=O)NC2=O)c[nH]1 (stereo partly drawn) [compound 354, 5-[3-[(3S)-4-(3,5-difluorophenyl)-3-methyl-piperazin-1-yl]-3-oxo-propyl]-5-(2-methyl-1H-imidazol-4-yl)imidazolidine-2,4-dione] | > 20000 | > 20000
23 | COc1ccc(C2(CCC(=O)N3CCN(c4cc(F)cc(F)c4)[C@@H](C)C3)NC(=O)NC2=O)cn1 (stereo partly drawn) [compound 356, 5-[3-[(3S)-4-(3,5-difluorophenyl)-3-methyl-piperazin-1-yl]-3-oxo-propyl]-5-(6-methoxy-3-pyridyl)imidazolidine-2,4-dione] | > 4000 | 40
24 | CCC1(CC(C)C(=O)N2CCN(c3cncc(F)c3)[C@@H](C)C2)NC(=O)NC1=O (stereo partly drawn) [compound 360, 5-ethyl-5-[3-[(3S)-4-(5-fluoro-3-pyridyl)-3-methyl-piperazin-1-yl]-2-methyl-3-oxo-propyl]imidazolidine-2,4-dione] | > 20000 | 119
25 | C[C@H]1CN(C(=O)CCC2(c3cn(C)cn3)NC(=O)NC2=O)CCN1c1cc(F)cc(F)c1 (stereo partly drawn) [compound 361, 5-[3-[(3S)-4-(3,5-difluorophenyl)-3-methyl-piperazin-1-yl]-3-oxo-propyl]-5-(1-methylimidazol-4-yl)imidazolidine-2,4-dione] | > 20000 | 51
26 | C[C@H]1CN(C(=O)CCC2(c3cocn3)NC(=O)NC2=O)CCN1c1cc(F)cc(F)c1 (stereo partly drawn) [compound 362, 5-[3-[(3S)-4-(3,5-difluorophenyl)-3-methyl-piperazin-1-yl]-3-oxo-propyl]-5-oxazol-4-yl-imidazolidine-2,4-dione] | > 20000 | 50
27 | COCC1(CC(C)C(=O)N2CCN(c3cncc(Cl)c3)[C@@H](C)C2)NC(=O)NC1=O (stereo partly drawn) [compound 363, 5-[3-[(3S)-4-(5-chloro-3-pyridyl)-3-methyl-piperazin-1-yl]-2-methyl-3-oxo-propyl]-5-(methoxymethyl)imidazolidine-2,4-dione] | > 12000 | 76
28 | COCC1(CC(C)C(=O)N2CCN(c3ccc(F)cc3)[C@@H](C)C2)NC(=O)NC1=O (stereo partly drawn) [compound 366, 5-[3-[(3S)-4-(4-fluorophenyl)-3-methyl-piperazin-1-yl]-2-methyl-3-oxo-propyl]-5-(methoxymethyl)imidazolidine-2,4-dione] | > 4000 | 36
29 | C[C@H]1CN(C(=O)CCC2(C3CC3)NC(=O)NC2=O)CCN1c1cccc(-c2ccnn2C)c1 (stereo partly drawn) [compound 368, 5-cyclopropyl-5-[3-[(3S)-3-methyl-4-[3-(2-methylpyrazol-3-yl)phenyl]piperazin-1-yl]-3-oxo-propyl]imidazolidine-2,4-dione] | > 20000 | 257
